Data: the supplement of paper PMC10307832

Columns and labels:
Assay in all cases: relative viability (nuclei count vs DMSO), 5 days (fraction); higher = more cells survive
NPK76-II-72-1 + OSI-027 = compound: CC1CC(=O)N(C2=CN=C(N=C2N1C3CCCC3)NC4=C(C=C(C=C4)C(=O)NC5CCN(CC5)C)OC)C [NPK76-II-72-1] + COc1cccc2cc(-c3nc([C@H]4CC[C@H](C(=O)O)CC4)n4ncnc(N)c34)[nH]c12 [OSI-027] (partner 0.5 µM)
Method in brief: (§1)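 Relative viability equals treated-well nuclei counts divided by vehicle-well nuclei counts. Counts came from 4× images of lung cancer cell lines grown in 1536-well plates for 5 days after pin-tool dosing on the day after seeding. Dosing used one drug alone or a fixed anchor-drug dose plus five library-drug doses (not always all listed) in √10 steps, and values are medians of duplicate plates.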

[1] = compound: CC1CC(=O)N(C2=CN=C(N=C2N1C3CCCC3)NC4=C(C=C(C=C4)C(=O)NC5CCN(CC5)C)OC)C [NPK76-II-72-1] + CS(=O)(=O)N1CCN(Cc2cc3nc(-c4cccc5[nH]ncc45)nc(N4CCOCC4)c3s2)CC1 [Pictilisib] (partner 1 µM)
Method in brief: as §1

BI-2536 + Lapatinib = compound: CC[C@@H]1C(=O)N(C)c2cnc(Nc3ccc(C(=O)NC4CCN(C)CC4)cc3OC)nc2N1C1CCCC1 [BI-2536] + CS(=O)(=O)CCNCc1ccc(-c2ccc3ncnc(Nc4ccc(OCc5cccc(F)c5)c(Cl)c4)c3c2)o1 [Lapatinib] (partner 2 µM)
Method in brief: as §1

BI-2536 + Dasatinib = compound: CC[C@@H]1C(=O)N(C)c2cnc(Nc3ccc(C(=O)NC4CCN(C)CC4)cc3OC)nc2N1C1CCCC1 [BI-2536] + Cc1nc(Nc2ncc(C(=O)Nc3c(C)cccc3Cl)s2)cc(N2CCN(CCO)CC2)n1 [Dasatinib] (partner 0.075 µM)
Method in brief: as §1

| Cell Line | relative viability (NPK76-II-72-1 + OSI-027; first compound 0.01 µM) | relative viability (NPK76-II-72-1 + OSI-027; first compound 0.03162 µM) | relative viability (NPK76-II-72-1 + OSI-027; first compound 0.1 µM) | relative viability (NPK76-II-72-1 + OSI-027; first compound 0.3162 µM) | relative viability (NPK76-II-72-1 + OSI-027; first compound 1 µM) | relative viability ([1]; first compound 0.01 µM) | relative viability ([1]; first compound 0.03162 µM) | relative viability ([1]; first compound 0.1 µM) | relative viability ([1]; first compound 0.3162 µM) | relative viability ([1]; first compound 1 µM) | relative viability (BI-2536 + Lapatinib; first compound 0.01 µM) | relative viability (BI-2536 + Lapatinib; first compound 0.03162 µM) | relative viability (BI-2536 + Lapatinib; first compound 0.1 µM) | relative viability (BI-2536 + Lapatinib; first compound 0.3162 µM) | relative viability (BI-2536 + Lapatinib; first compound 1 µM) | relative viability (BI-2536 + Dasatinib; first compound 0.01 µM) | relative viability (BI-2536 + Dasatinib; first compound 0.03162 µM) | relative viability (BI-2536 + Dasatinib; first compound 0.1 µM) | relative viability (BI-2536 + Dasatinib; first compound 0.3162 µM) | relative viability (BI-2536 + Dasatinib; first compound 1 µM) |
| --- | --- | --- | --- | --- | --- | --- | --- | --- | --- | --- | --- | --- | --- | --- | --- | --- | --- | --- | --- | --- |
| NCI-H322M | 0.558 | 0.593 | 0.534 | 0.56 | 0.672 | 0.45 | 0.573 | 0.513 | 0.576 | 0.513 | 0.545 | 0.483 | 0.59 | 0.673 | 0.251 | 0.286 | 0.248 | 0.259 | 0.361 | 0.288 |
| NCI-H838 | 0.323 | 0.363 | 0.385 | 0.395 | 0.442 | 0.37 | 0.481 | 0.47 | 0.435 | 0.432 | 1.04 | 0.877 | 0.155 | 0.101 | 0.133 | 0.281 | 0.291 | 0.235 | 0.134 | 0.164 |
| HARA | 0.393 | 0.424 | 0.545 | 0.345 | 0.67 | 0.371 | 0.368 | 0.46 | 0.26 | 0.377 | 0.703 | 0.814 | 0.569 | 0.0764 | 0.0911 | 0.265 | 0.287 | 0.328 | 0.058 | 0.0777 |
| NCI-H2087 | 0.486 | 0.644 | 0.491 | 0.513 | 0.645 | 0.895 | 0.838 | 0.895 | 0.722 | 1.04 | 1.38 | 0.992 | 0.594 | 0.138 | 0.146 | 0.913 | 0.926 | 0.509 | 0.105 | 0.0876 |
| NCI-H1437 | 0.862 | 0.877 | 0.871 | 0.843 | 0.995 | 0.479 | 0.441 | 0.451 | 0.427 | 0.477 | 0.784 | 0.718 | 0.237 | 0.116 | 0.122 | 0.318 | 0.365 | 0.247 | 0.173 | 0.108 |
| NCI-H1792 | 0.701 | – | 0.734 | 0.753 | 0.802 | 0.353 | 0.285 | 0.26 | 0.29 | 0.286 | 0.93 | 0.751 | 1.09 | 0.186 | 0.0746 | 0.762 | 0.916 | 0.885 | 0.498 | 0.34 |
| NCI-H650 | 0.512 | 0.565 | 0.515 | 0.49 | 0.623 | 0.804 | 0.88 | 0.71 | – | 1.21 | 0.882 | 0.85 | 0.166 | 0.214 | 0.151 | 0.44 | 0.511 | 0.3 | 0.158 | 0.0998 |
| COR-L23 | 0.645 | 0.858 | 0.864 | 0.775 | 0.764 | 0.742 | 0.895 | 0.831 | 0.763 | 0.869 | 1.05 | 0.776 | 0.357 | 0.0913 | 0.102 | 0.459 | 0.491 | 0.117 | 0.107 | 0.0593 |
| COR-L 105 | 0.644 | 0.724 | 0.718 | 0.609 | 1.09 | 0.424 | 0.467 | 0.423 | 0.411 | 0.451 | 0.309 | 0.364 | 0.271 | 0.248 | 0.269 | 0.359 | 0.312 | 0.212 | 0.197 | 0.148 |
| LK-2 | 0.157 | 0.227 | 0.206 | 0.201 | 0.233 | 0.582 | 0.567 | 0.636 | – | 0.582 | 0.883 | 0.81 | 0.336 | 0.163 | 0.199 | 0.268 | 0.313 | 0.215 | 0.147 | 0.137 |
| 201T | 0.65 | 0.677 | 0.703 | 0.673 | 0.474 | 0.642 | 0.618 | 0.66 | 0.7 | 0.677 | 0.946 | 1.03 | 1.03 | 1.04 | 0.38 | 0.579 | 0.57 | 0.547 | 0.402 | 0.285 |
| NCI-H596 | 0.873 | 0.666 | 0.748 | 0.691 | 0.67 | 0.401 | 0.338 | 0.396 | 0.368 | 0.429 | 1.17 | 1.05 | 0.571 | 0.346 | 0.273 | 0.574 | 0.673 | 0.449 | 0.25 | 0.273 |
| H3255 | 0.445 | 0.483 | 0.531 | 0.416 | 0.588 | 0.449 | 0.449 | 0.476 | 0.251 | 0.481 | 0.256 | 0.225 | 0.076 | 0.117 | 0.143 | 0.315 | 0.237 | 0.235 | 0.27 | 0.25 |
| NCI-H647 | 0.618 | 0.626 | 0.526 | 0.578 | 0.627 | 0.38 | 0.427 | 0.401 | 0.406 | 0.466 | 1.11 | 0.737 | 0.104 | 0.0701 | 0.129 | 0.156 | 0.184 | 0.0428 | 0.0374 | 0.039 |
| NCI-H2023 | 0.373 | 0.426 | 0.412 | 0.415 | 0.454 | 0.264 | 0.227 | 0.244 | 0.257 | 0.253 | 0.963 | 0.613 | 0.0796 | 0.0761 | 0.142 | 0.587 | 0.463 | 0.346 | 0.0877 | 0.0801 |
| NCI-H23 | 0.649 | 0.649 | 0.568 | 0.585 | 0.71 | 0.389 | 0.48 | – | 0.503 | 0.534 | 1.07 | 0.773 | 0.168 | 0.171 | 0.147 | 0.803 | 1.02 | 0.285 | 0.126 | 0.107 |
